The test system of data set [1] is T1, C. thiooxydans homolog.
T1 construct: gene MHETase homolog; Gly179 at the position of MHETase Ser131
Put plainly: HPLC hydrolysis assay, initial velocities, substrate inhibition model fit. The format is biochemical, Comamonas thiooxydans. The following applies: substrate inhibition constant. The text has this: HPLC hydrolysis assay, initial velocities, substrate inhibition model fit on C. thiooxydans homolog | MHETase and both homologs also display this behavior

The test system of data set [2] is T2, C. thiooxydans homolog.
T2 construct: gene MHETase homolog
As to conditions: substrate inhibition model.

Data set [3] addresses T3, MHETase (Pseudideonella sakaiensis, UniProt A0A0K8P8E7).
T3 sequence (A0A0K8P8E7 18-603 limits assumed): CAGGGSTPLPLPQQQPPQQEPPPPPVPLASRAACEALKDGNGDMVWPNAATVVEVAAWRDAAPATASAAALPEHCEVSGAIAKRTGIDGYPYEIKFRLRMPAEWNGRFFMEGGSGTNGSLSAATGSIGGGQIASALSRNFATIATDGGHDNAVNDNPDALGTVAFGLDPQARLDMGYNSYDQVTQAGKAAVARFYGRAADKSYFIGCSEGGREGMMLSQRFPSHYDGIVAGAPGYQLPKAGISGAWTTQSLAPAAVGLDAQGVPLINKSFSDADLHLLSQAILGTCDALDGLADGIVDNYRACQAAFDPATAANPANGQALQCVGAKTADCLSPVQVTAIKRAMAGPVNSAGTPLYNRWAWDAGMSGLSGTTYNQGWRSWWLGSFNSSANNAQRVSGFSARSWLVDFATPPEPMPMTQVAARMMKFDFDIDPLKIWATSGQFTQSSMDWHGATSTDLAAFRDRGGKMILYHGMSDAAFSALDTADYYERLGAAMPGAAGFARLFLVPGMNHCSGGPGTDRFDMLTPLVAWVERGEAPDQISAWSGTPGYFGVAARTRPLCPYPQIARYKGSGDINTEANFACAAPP
Kind of data set: HPLC hydrolysis assay, initial velocities, substrate inhibition model fit. The format is biochemical. Also noted: gene ISF6_0224; pET21b(+)-based expression in E. coli, purified; residue borders and tags only in SI; catalytic triad Ser225, Asp492, His528. As to conditions: substrate inhibition constant. The text has this: HPLC hydrolysis assay, initial velocities, substrate inhibition model fit on MHETase | MHETase is also the most susceptible to substrate inhibition with a Kk value of […]

Data set [4] deals with T3, MHETase. Put plainly: X-ray crystallography, […] Å. The format is binding. Also noted: gene ISF6_0224; pET21b(+)-based expression in E. coli, purified; residue borders and tags only in SI; catalytic triad Ser225, Asp492, His528. The following applies: active site; fully occupied in 6QZ3, partially occupied in 6QZ1.
Substrate in data set [5]: O=C(O)c1ccc(C(=O)OCCO)cc1
Kind of data set: HPLC hydrolysis assay, initial velocities, simple Michaelis-Menten fit. The format is biochemical, Pseudideonella sakaiensis. The following applies: simple Michaelis-Menten model. The source says: HPLC hydrolysis assay, initial velocities, simple Michaelis-Menten fit on MHETase | The S131G mutant has a Km value approximately eightfold higher than that of wild-type MHETase

Where a chain is given by its changes, count along the chain named. Names and notes keep the numbering of the source.

As to `O=C(O)c1ccc(C(=O)OCCO)cc1` [MHET], the Kk in the data set with C. thiooxydans homolog [1] was found to be 78.80 ± 3.04 µM; on MHETase [3] it was 307.30 ± 20.65 µM. The Michaelis-Menten constant (Km) (in general, the substrate concentration at which the rate is half of its maximum) with C. thiooxydans homolog [2] is 175 ± 4.75 µM.

On to `O=C(O)c1ccccc1` [benzoate], for which the “X-ray crystallography, 1.6 Å” value on MHETase [4] is reported as “one structure with a fully occupied benzoic acid ligand (6QZ3)”.

B1: MHETase (Pseudideonella sakaiensis; S131G) (protein)
chain: T3 sequence (A0A0K8P8E7 18-603 limits assumed) with S114G
notes: pET21b(+)-based expression in E. coli, purified; residue borders and tags only in SI; catalytic triad Ser225, Asp492, His528
On to B1, for which the Km in data set [5] was determined as 184.10 ± 3.50 µM.
